Values quoted from earlier work, collected in patent publication US20220088278A1, “Covered Stent For Local Drug Delivery” (BIOTRONIK AG, priority 2019, published 2022).

Test system: main bile duct of pancreatic cancer patients
Conditions: thirty-six pancreatic cancer patients

Q: With `CC(=O)O[C@H]1C(=O)[C@@]2(C)[C@H]([C@H](OC(=O)c3ccccc3)[C@]3(O)C[C@H](OC(=O)[C@H](O)[C@@H](NC(=O)c4ccccc4)c4ccccc4)C(C)=C1C3(C)C)[C@]1(OC(C)=O)CO[C@@H]1C[C@@H]2O` [paclitaxel] as the compound, how does the “duct patency duration versus covered stent without drug” value read?
A: did not significantly differ
